# Experimental data from US20260007613A1, “LONG-ACTING LOW-TOXICITY NOVEL CATIONIC LIPID COMPOUNDS AND COMPOSITION THEREOF” (BEIJING YOUCAREKECHUANG PHARMACEUTICAL TECHNOLOGY CO., LTD., priority 2023, published 2026).
# Values joined by “and” are separate entries in the source; they are usually repeats but may differ in a detail not shown here. Equal entries are not always repeated.
# Key:
# [1] = Particle size and polydispersity index (PDI) of lipid nanoparticles by dynamic light scattering; type: physicochemical; details: LNP formulation prepared from the cationic lipid, 25° C.
# Experimental: The particle size and polydispersity index (PDI) were determined by dynamic light scattering using Malvern laser particle size analyzer.
# 10 μL of the liposome solution was weighed, diluted to 1 mL with RNase-free deionized water, and added to the sample pool. Each sample was measured in triplicate. The measurement conditions were: […] scattering angle, and 25° C.
# 293T cells [2] = assay: Fluorescent detection of Fluc-mRNA (cell transfection efficiency of LNP formulations); type: cell-based
# Procedure, shortened: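 293T cells were seeded at 10,000/well and cultured overnight, then given LNP carrying […] Fluc-mRNA (cationic:neutral:structured:polymer-conjugated lipid 49:10:39.5:1.5 molar) for 24 h. Luminescence was developed with […] and imaged on IVIS.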
# 293T cells [3] = assay: Cell survival rate determination (CCK-8); type: cell-based; details: difference of survival rates
# Procedure, shortened: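 293T cells plated at 10,000/well (96-well), adhered overnight, then exposed 24 h to Fluc-mRNA LNP (cationic:neutral:structured:PEG-lipid 49:10:39.5:1.5) or Lipofectamine 3000. Viability by CCK-8, 1 h incubation, absorbance at 450 nm.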
# female BALB/C mice = assay: Live imaging in mice: protein expression of Fluc-mRNA delivered by LNP formulations; type: in vivo; details: for average radiation intensity, times that of ALC-0315: comparator ALC-0315; for average radiation intensity, times that of HHMA: comparator HHMA; for average radiation intensity, times that of SM-102: comparator SM-102; for expression of mRNA in mice, times that of YK-302: comparator YK-302; for expression amount, times that of YK-321: comparator YK-321; for average radiation intensity, times that of compound 21: comparator compound 21; for average radiation intensity, times that of compound 23: comparator compound 23
# Procedure, shortened: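 Female BALB/C mice (4-6 weeks, 17-19 g) received LNP-formulated Fluc-mRNA […] intramuscularly. At 6 h, 24 h, 48 h and 7 d, luciferase substrate given intraperitoneally, and after 5 min average radiance measured by IVIS whole-body imaging.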
# liver = assay: Distribution of liposomes in mice: protein expression in the liver (live imaging); type: in vivo; details: at 6 h
# Procedure, shortened: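 Female BALB/C mice (4–6 weeks, 17–19 g) received LNP carrying […] Fluc-mRNA intramuscularly. At 6 h, 24 h, 48 h and 7 d, the luciferase substrate was given intraperitoneally. After 5 min of free movement, average radiance was imaged with IVIS Spectrum.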
structure (smiles),measurement,setting,value
CCCCCCC(CCCCCC)CCOC(=O)CCCCCCN(CCCCCCC(=O)OCCC(CCCCCC)CCCCCC)C[C@H](O)CN(CCO)CCO [YK-319],PDI (%),[1],11.7%
same,Particle size (nm),[1],200 nm
same,Relative light unit (RLU),"293T cells [2]; LNP formulation of Fluc-mRNA, 96-well plate, 24 hours",24467760 RLU
same,Multiples (YK-305),293T cells [2]; RLU of YK-305 / RLU of the lipid of the line,1.12
same,Multiples (YK-310),293T cells [2]; RLU of YK-310 / RLU of the lipid of the line,1.05
same,Multiples (YK-312),293T cells [2]; RLU of YK-312 / RLU of the lipid of the line,0.82
same,Multiples (YK-318),"293T cells [2]; RLU of YK-318 / RLU of the lipid of the line, Tables 5, 7, 11",0.46
same,Multiples (YK-319),"293T cells [2]; RLU of YK-319 / RLU of the lipid of the line, Tables 5, 7, 11",1.00
same,Ratio relative to SM-102,"293T cells [2]; RLU of the lipid / RLU of SM-102, times that of SM-102",15.25
same,"cell transfection efficiency, times that of ALC-0315",293T cells [2]; comparator ALC-0315,12.03 times
same,"cell transfection efficiency, times that of HHMA",293T cells [2]; comparator HHMA,12.20 times
same,"cell transfection efficiency, times that of Lipofectamine 3000",293T cells [2]; comparator Lipofectamine 3000,20.63 times
same,"cell transfection efficiency, times that of YK-009",293T cells [2]; comparator YK-009,4.78 times
same,"cell transfection efficiency, times that of YK-301",293T cells [2]; comparator YK-301,29.04 times
same,"cell transfection efficiency, times that of YK-302",293T cells [2]; comparator YK-302,880.83 times
same,"cell transfection efficiency, times that of YK-303",293T cells [2]; comparator YK-303,39.07 times
same,"cell transfection efficiency, times that of YK-304",293T cells [2]; comparator YK-304,~1100 times and 1182.82 times
same,"cell transfection efficiency, times that of YK-306",293T cells [2]; comparator YK-306,11.14 times
same,"cell transfection efficiency, times that of YK-307",293T cells [2]; comparator YK-307,5.37 times
same,"cell transfection efficiency, times that of YK-308",293T cells [2]; comparator YK-308,2.22 times
same,"cell transfection efficiency, times that of YK-309",293T cells [2]; comparator YK-309,~190 times and 195.16 times
same,"cell transfection efficiency, times that of YK-311",293T cells [2]; comparator YK-311,12.46 times
same,"cell transfection efficiency, times that of YK-313",293T cells [2]; comparator YK-313,28.24 times
same,"cell transfection efficiency, times that of YK-314",293T cells [2]; comparator YK-314,44.70 times
same,"cell transfection efficiency, times that of YK-315",293T cells [2]; comparator YK-315,15.42 times
same,"cell transfection efficiency, times that of YK-316",293T cells [2]; comparator YK-316,5.09 times
same,"cell transfection efficiency, times that of YK-317",293T cells [2]; comparator YK-317,6.79 times
same,"cell transfection efficiency, times that of YK-320",293T cells [2]; comparator YK-320,9.05 times
same,"cell transfection efficiency, times that of YK-321",293T cells [2]; comparator YK-321,17.43 times
same,"cell transfection efficiency, times that of compound 21",293T cells [2]; comparator compound 21,17.08 times
same,"cell transfection efficiency, times that of compound 23",293T cells [2]; comparator compound 23,18.04 times
same,cell survival rate higher than ALC-0315,293T cells [3]; comparator ALC-0315,24.18%
same,cell survival rate higher than HHMA,293T cells [3]; comparator HHMA,8.74%
same,cell survival rate higher than Lipofectamine 3000,293T cells [3]; comparator Lipofectamine 3000,50.20%
same,cell survival rate higher than SM-102,293T cells [3]; comparator SM-102,5.76%
same,cell survival rate higher than YK-301,293T cells [3]; comparator YK-301,22.25%
same,cell survival rate higher than YK-302,293T cells [3]; comparator YK-302,58.78%
same,cell survival rate higher than YK-303,293T cells [3]; comparator YK-303,11.89%
same,cell survival rate higher than YK-304,293T cells [3]; comparator YK-304,41.05%
same,cell survival rate higher than YK-306,293T cells [3]; comparator YK-306,33.02%
same,cell survival rate higher than YK-307,293T cells [3]; comparator YK-307,14.07%
same,cell survival rate higher than YK-308,293T cells [3]; comparator YK-308,4.22%
same,cell survival rate higher than YK-309,293T cells [3]; comparator YK-309,43.60%
same,cell survival rate higher than YK-311,293T cells [3]; comparator YK-311,5.15%
same,cell survival rate higher than YK-313,293T cells [3]; comparator YK-313,6.28%
same,cell survival rate higher than YK-314,293T cells [3]; comparator YK-314,7.33%
same,cell survival rate higher than YK-315,293T cells [3]; comparator YK-315,3.93%
same,cell survival rate higher than YK-316,293T cells [3]; comparator YK-316,4.68%
same,cell survival rate higher than YK-317,293T cells [3]; comparator YK-317,16.03%
same,cell survival rate higher than YK-320,293T cells [3]; comparator YK-320,4.14%
same,cell survival rate higher than YK-321,293T cells [3]; comparator YK-321,2.87%
same,cell survival rate higher than compound 21,293T cells [3]; comparator compound 21,5.00%
same,cell survival rate higher than compound 23,293T cells [3]; comparator compound 23,3.71%
same,"average radiation intensity, times that of ALC-0315",female BALB/C mice; 6 h,9.53 times
same,"average radiation intensity, times that of HHMA",female BALB/C mice; 6 h,12.64 times
same,"average radiation intensity, times that of SM-102",female BALB/C mice; 6 h,11.74 times
same,"expression of mRNA in mice, times that of YK-302",female BALB/C mice; 6 h,564.51 times
same,"expression amount, times that of YK-321",female BALB/C mice; 6 h,15.96 times
same,"average radiation intensity, times that of compound 21",female BALB/C mice; 6 h,13.49 times
same,"average radiation intensity, times that of compound 23",female BALB/C mice; 6 h,13.96 times
same,average radiation intensity,female BALB/C mice; 6 h after intramuscular injection,8230500
same,"average radiation intensity, times that of ALC-0315",female BALB/C mice; 24 h,12.78 times
same,"average radiation intensity, times that of HHMA",female BALB/C mice; 24 h,20.29 times
same,"average radiation intensity, times that of SM-102",female BALB/C mice; 24 h,20.20 times
same,"expression of mRNA in mice, times that of YK-302",female BALB/C mice; 24 h,615.26 times
same,"expression amount, times that of YK-321",female BALB/C mice; 24 h,24.04 times
same,"average radiation intensity, times that of compound 21",female BALB/C mice; 24 h,22.16 times
same,"average radiation intensity, times that of compound 23",female BALB/C mice; 24 h,23.28 times
same,average radiation intensity,female BALB/C mice; 24 h after intramuscular injection,2433960
same,"average radiation intensity, times that of ALC-0315",female BALB/C mice; 48 h,22.30 times
same,"average radiation intensity, times that of HHMA",female BALB/C mice; 48 h,27.27 times
same,"average radiation intensity, times that of SM-102",female BALB/C mice; 48 h,27.27 times
same,"expression of mRNA in mice, times that of YK-302",female BALB/C mice; 48 h,866.03 times
same,"expression amount, times that of YK-321",female BALB/C mice; 48 h,24.28 times
same,"average radiation intensity, times that of compound 21",female BALB/C mice; 48 h,28.65 times
same,"average radiation intensity, times that of compound 23",female BALB/C mice; 48 h,26.80 times
same,average radiation intensity,female BALB/C mice; 48 h after intramuscular injection,887680
same,"average radiation intensity, times that of ALC-0315",female BALB/C mice; 7 d,14.88 times
same,"average radiation intensity, times that of HHMA",female BALB/C mice; 7 d,17.86 times
same,"average radiation intensity, times that of SM-102",female BALB/C mice; 7 d,15.84 times
same,"expression of mRNA in mice, times that of YK-302",female BALB/C mice; 7 d,273.07 times
same,"expression amount, times that of YK-321",female BALB/C mice; 7 d,15.92 times
same,"average radiation intensity, times that of compound 21",female BALB/C mice; 7 d,16.27 times
same,"average radiation intensity, times that of compound 23",female BALB/C mice; 7 d,16.80 times
same,average radiation intensity,female BALB/C mice; 7 d after intramuscular injection,104860
same,expression amount in the liver compared with ALC-0315 and SM-102,liver,reduced
same,protein expression in the liver,liver; intramuscular injection,had protein expression in the liver
